Results: ChEMBL document CHEMBL5365473, “Novel Sulfonylurea-Based NLRP3 Inflammasome Inhibitor for Efficient Treatment of Nonalcoholic Steatohepatitis, Endotoxic Shock, and Colitis” (J Med Chem, 2023)
Activity calls are given as the source filed them. No cut-off for these calls is given here.

How the values were obtained:
[1] = Drug uptake in Sprague-Dawley rat lungs at 50 mg/kg, po measured for 24 hrs by LC-MS/MS analysis; format: ADME, organism-based, Lung; conditions: in vivo
[2] = Toxicity against male ICR mouse assessed as effect on kidney weight at 200 to 500 mg/kg administered via gavage for 12 days; format: organism-based; conditions: in vivo, po, 288 h, dose 200-500 mg/kg, time 12 day
Mus musculus [3] = test: Antiinflammatory activity against DSS-induced ulcerative colitis C57BL/6 mouse assessed as reduction in colon length shortening at 10 mg/kg, ip administered for 9 days and measured on day 10; format: functional, organism-based; conditions: time 10.0 day
Hepatocyte = test: Cytotoxicity against mouse primary hepatic cells assessed as reduction in cell viability at 200 uM measured after 24 hrs by CCK8 assay; format: toxicity, cell-based; conditions: hepatocytes
[4] = Toxicity against female ICR mouse assessed as effect on plasma creatinine level at 200 to 500 mg/kg administered via gavage for 12 days; format: organism-based; conditions: in vivo, po, 288 h, dose 200-500 mg/kg, time 12 day
[5] = Drug uptake in Sprague-Dawley rat kidney at 50 mg/kg, po measured for 24 hrs by LC-MS/MS analysis; format: ADME, organism-based; conditions: in vivo
[6] = Cmax in ICR mouse at 5 mg/kg, iv by LC-MS/MS analysis; format: ADME, organism-based; parameters: dose 5 mg/kg, route iv; conditions: in vivo
[7] = molecular target: NLR family CARD domain-containing protein 4 (Mus musculus) (UniProt Q3UP24); test: Inhibition of NLRC4 inflammasome in mouse J774.A1 cells assessed as inhibition of caspase-1 activation at 30 nM primed with LPS for 4.5 hrs followed by incubation with compound for 24 hrs and later stimulated with flagellin for 24 hrs by immunoblot analysis; format: cell-based; conditions: time 48.0 hrs
Chain of NLR family CARD domain-containing protein 4 (Mus musculus) (Q3UP24 whole entry, the tested form may be a part): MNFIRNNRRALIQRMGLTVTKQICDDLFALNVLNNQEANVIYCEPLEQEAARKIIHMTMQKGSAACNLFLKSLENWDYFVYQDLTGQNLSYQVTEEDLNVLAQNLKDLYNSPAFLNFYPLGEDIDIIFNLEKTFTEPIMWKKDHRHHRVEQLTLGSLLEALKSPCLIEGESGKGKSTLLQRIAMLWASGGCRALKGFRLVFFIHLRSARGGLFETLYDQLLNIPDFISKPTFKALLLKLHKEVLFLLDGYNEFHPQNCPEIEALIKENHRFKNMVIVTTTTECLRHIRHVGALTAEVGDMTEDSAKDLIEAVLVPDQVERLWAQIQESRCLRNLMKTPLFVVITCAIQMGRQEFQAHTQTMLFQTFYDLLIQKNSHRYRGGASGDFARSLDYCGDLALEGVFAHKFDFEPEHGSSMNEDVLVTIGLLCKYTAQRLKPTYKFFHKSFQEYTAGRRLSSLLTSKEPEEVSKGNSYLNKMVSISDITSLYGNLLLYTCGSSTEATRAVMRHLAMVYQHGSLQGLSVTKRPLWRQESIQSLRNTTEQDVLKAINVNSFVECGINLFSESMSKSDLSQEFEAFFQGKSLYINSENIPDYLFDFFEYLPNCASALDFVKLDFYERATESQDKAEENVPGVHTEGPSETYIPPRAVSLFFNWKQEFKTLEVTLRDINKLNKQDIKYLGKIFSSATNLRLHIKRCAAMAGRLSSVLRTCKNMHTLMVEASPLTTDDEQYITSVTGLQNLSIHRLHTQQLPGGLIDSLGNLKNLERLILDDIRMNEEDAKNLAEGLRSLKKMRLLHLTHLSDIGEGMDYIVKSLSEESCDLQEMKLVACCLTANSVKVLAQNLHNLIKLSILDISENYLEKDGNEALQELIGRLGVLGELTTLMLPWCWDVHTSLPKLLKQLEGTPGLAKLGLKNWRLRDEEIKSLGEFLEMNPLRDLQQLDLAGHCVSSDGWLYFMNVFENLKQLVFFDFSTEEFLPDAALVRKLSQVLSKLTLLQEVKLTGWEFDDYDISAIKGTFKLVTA

[8] = AUC (0 to infinity) in ICR mouse at 10 mg/kg, po by LC-MS/MS analysis; format: ADME, organism-based; parameters: dose 10 mg/kg, route po; conditions: in vivo
Mus musculus [9] = test: Antiinflammatory activity against DSS-induced ulcerative colitis C57BL/6 mouse assessed as reduction in body weight loss at 10 mg/kg, ip administered for 9 days and measured daily; format: functional, organism-based; conditions: time 9.0 day
Mus musculus [10] = test: Antiinflammatory activity against DSS-induced ulcerative colitis C57BL/6 mouse assessed as reduction in inflammatory cells infiltration in lamina propria in colon at 10 mg/kg, ip administered for 9 days and measured on day 10 by H and E staining based analysis; format: functional, organism-based; conditions: time 10.0 day
[11] = AUC (0 to infinity) in ICR mouse at 5 mg/kg, iv by LC-MS/MS analysis; format: ADME, organism-based; parameters: dose 5 mg/kg, route iv; conditions: in vivo
[12] = molecular target: NACHT, LRR and PYD domains-containing protein 3 (Mus musculus) (UniProt Q8R4B8); test: Inhibition of NLRP3 inflammasome in mouse J774.A1 cells assessed as inhibition of IL-1 beta secretion primed with LPS for 4.5 hrs followed by incubation with compound for 2.5 hrs and later stimulated with ATP for 30 mins by immunoblot analysis; format: cell-based; conditions: dose 3-30 nM, time 3.0 hrs
Chain of NACHT, LRR and PYD domains-containing protein 3 (Mus musculus) (Q8R4B8 whole entry, the tested form may be a part): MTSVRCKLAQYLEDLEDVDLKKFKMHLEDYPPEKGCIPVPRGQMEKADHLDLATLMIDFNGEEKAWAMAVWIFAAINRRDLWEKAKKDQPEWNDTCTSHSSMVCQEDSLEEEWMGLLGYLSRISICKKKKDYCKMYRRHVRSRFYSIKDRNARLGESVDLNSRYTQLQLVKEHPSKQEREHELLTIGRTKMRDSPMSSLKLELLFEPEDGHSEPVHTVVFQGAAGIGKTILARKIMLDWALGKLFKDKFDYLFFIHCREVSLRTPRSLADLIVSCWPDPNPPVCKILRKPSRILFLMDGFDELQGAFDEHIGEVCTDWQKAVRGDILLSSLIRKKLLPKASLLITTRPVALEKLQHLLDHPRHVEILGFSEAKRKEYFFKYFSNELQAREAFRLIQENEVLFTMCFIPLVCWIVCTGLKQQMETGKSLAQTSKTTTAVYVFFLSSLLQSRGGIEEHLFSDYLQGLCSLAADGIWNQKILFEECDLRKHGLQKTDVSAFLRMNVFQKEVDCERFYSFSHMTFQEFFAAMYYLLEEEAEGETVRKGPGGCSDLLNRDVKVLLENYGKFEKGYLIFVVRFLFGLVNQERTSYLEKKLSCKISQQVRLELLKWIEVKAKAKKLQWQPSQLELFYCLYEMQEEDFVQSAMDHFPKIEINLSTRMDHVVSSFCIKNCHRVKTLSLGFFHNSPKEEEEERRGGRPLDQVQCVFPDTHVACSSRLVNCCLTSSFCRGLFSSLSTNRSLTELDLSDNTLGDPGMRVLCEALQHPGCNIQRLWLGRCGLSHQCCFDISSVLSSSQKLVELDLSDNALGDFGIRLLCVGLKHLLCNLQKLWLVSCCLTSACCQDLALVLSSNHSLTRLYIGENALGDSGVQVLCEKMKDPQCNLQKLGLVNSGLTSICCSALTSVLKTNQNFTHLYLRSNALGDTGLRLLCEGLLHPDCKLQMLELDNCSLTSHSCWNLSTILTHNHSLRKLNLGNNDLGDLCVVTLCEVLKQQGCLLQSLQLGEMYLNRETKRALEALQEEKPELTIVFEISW

[13] = Toxicity against female ICR mouse assessed as effect on heart weight at 200 to 500 mg/kg administered via gavage for 12 days; format: organism-based; conditions: in vivo, po, 288 h, dose 200-500 mg/kg, time 12 day
[14] = Cmax in ICR mouse at 10 mg/kg, po by LC-MS/MS analysis; format: ADME, organism-based; parameters: dose 10 mg/kg, route po; conditions: in vivo
[15] = Toxicity against male ICR mouse assessed as effect on plasma creatinine level at 200 to 500 mg/kg administered via gavage for 12 days; format: organism-based; conditions: in vivo, po, 288 h, dose 200-500 mg/kg, time 12 day
Mus musculus [16] = test: Antiinflammatory activity against MCD diet-induced NASH C57BL/6 mouse model assessed as reduction in liver fibrosis at 40 mg/kg, po administered via gavage for 5 weeks by H and E staining based analysis; format: functional, organism-based
Mus musculus [17] = test: Antiinflammatory activity against MCD diet-induced NASH C57BL/6 mouse model assessed as reduction in immune cell infiltration by measuring reduction in F4/80-positive hepatic cells at 40 mg/kg, po administered via gavage for 5 weeks by immunofluorescence staining based analysis; format: functional, organism-based
Mus musculus [18] = test: Antiinflammatory activity against MCD diet-induced NASH C57BL/6 mouse model assessed as reduction in balloon dilatation in liver at 40 mg/kg, po administered via gavage for 5 weeks by Sirius red staining based analysis; format: functional, organism-based
J774.A1 = test: Effect on pro-IL-1 beta protein expression in mouse J774.A1 cells at 3 to 30 nM primed with LPS for 4.5 hrs followed by incubation with compound for 2.5 hrs and later stimulated with ATP for 30 mins by immunoblot analysis; format: functional, cell-based; conditions: dose 3-30 nM, time 3.0 hrs
[19] = Drug uptake in Sprague-Dawley rat brain at 50 mg/kg, po measured for 24 hrs by LC-MS/MS analysis; format: ADME, organism-based; conditions: in vivo
[20] = Effect on immune cell numbers in MCS diet-fed C57BL/6 mouse assessed as effect on F4/80 expression at 40 mg/kg, po administered via gavage for 5 weeks by immunofluorescence staining based analysis; format: toxicity, organism-based; conditions: in vivo, 840 h
Mus musculus [21] = test: Antiinflammatory activity against MCD diet-induced NASH C57BL/6 mouse model assessed as reduction in immune cell infiltration by measuring reduction in CD45-positive hepatic cells at 40 mg/kg, po administered via gavage for 5 weeks by immunofluorescence staining based analysis; format: functional, organism-based
[22] = Toxicity against female ICR mouse assessed as effect on plasma ALT level at 200 to 500 mg/kg administered via gavage for 12 days; format: organism-based; conditions: in vivo, po, 288 h, dose 200-500 mg/kg, time 12 day
[23] = Toxicity against male ICR mouse assessed as effect on heart weight at 200 to 500 mg/kg administered via gavage for 12 days; format: organism-based; conditions: in vivo, po, 288 h, dose 200-500 mg/kg, time 12 day
[24] = Clearance in ICR mouse at 5 mg/kg, iv by LC-MS/MS analysis; format: ADME, organism-based; conditions: in vivo
[25] = Drug uptake in Sprague-Dawley rat spleen at 50 mg/kg, po measured for 24 hrs by LC-MS/MS analysis; format: ADME, organism-based; conditions: in vivo
[26] = Toxicity against male ICR mouse assessed as effect on plasma ALT level at 200 to 500 mg/kg administered via gavage for 12 days; format: organism-based; conditions: in vivo, po, 288 h, dose 200-500 mg/kg, time 12 day
[27] = molecular target: T1, Interferon-inducible protein AIM2 (Mus musculus) (UniProt Q91VJ1); test: Inhibition of AIM2 inflammasome in mouse J774.A1 cells assessed as inhibition of caspase-1 activation at 30 nM primed with LPS for 4.5 hrs followed by incubation with compound for 24 hrs and later stimulated with poly (dA:dT) for 6 hrs by immunoblot analysis; format: cell-based; conditions: time 30.0 hrs
T1 sequence (whole entry): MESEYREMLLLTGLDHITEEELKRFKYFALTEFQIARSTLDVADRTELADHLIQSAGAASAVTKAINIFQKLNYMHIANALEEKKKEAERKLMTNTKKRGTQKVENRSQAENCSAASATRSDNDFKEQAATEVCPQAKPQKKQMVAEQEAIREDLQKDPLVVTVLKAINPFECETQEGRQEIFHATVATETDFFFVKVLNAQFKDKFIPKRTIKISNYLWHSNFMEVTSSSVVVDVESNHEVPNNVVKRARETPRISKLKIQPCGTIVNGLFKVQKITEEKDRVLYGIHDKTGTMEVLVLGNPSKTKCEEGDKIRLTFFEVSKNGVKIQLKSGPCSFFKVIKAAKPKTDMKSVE

Mus musculus [28] = test: Antiinflammatory activity against MCD diet-induced NASH C57BL/6 mouse model assessed as reduction in liver fibrosis at 40 mg/kg, po administered via gavage for 5 weeks by Masson's trichrome staining based analysis; format: functional, organism-based
THP-1 = test: Effect on ROS production in PMA-induced differentiated human THP-1 cells at 30 nM pretreated with compound for 24 hrs followed by stimulation with LPS for 4.5 hrs and ATP for 1 hr by MitoSOX dye based confocal microscopy; format: functional, cell-based; conditions: time 29.5 hrs

In the case of `CN(C)Cc1ccc(S(=O)(=O)NC(=O)Nc2c3c(cc4c2CCC4)CCC3)cc1`, the Drug uptake [1] is reported as “Active”, the Activity [2] is reported as “Non-Toxic” and the Activity (Mus musculus [3]) is reported as “Active”. The Activity (Hepatocyte) was “Non-Toxic”, the Activity [4] was “Non-Toxic” and the Drug uptake [5] was “Active”. For the same compound, the Cmax [6] was 22600 ng/mL, the inhibition [7] was “inactive” and the AUC(0-inf) [8] was 222 µg·h/mL. The Activity (Mus musculus [9]) was “Active”, the Activity (Mus musculus [10]) was “Active” and the AUC(0-inf) [11] was 130 µg·h/mL. For the same compound, the inhibition [12] was “Dose-Dependent Effect”, the Activity [13] was “Non-Toxic” and the Cmax [14] was 33900 ng/mL. For the same compound, the Activity [15] was “Non-Toxic”, the Activity (Mus musculus [16]) was “Active” and the Activity (Mus musculus [17]) was “Active”. For the same compound, the Activity (Mus musculus [18]) was “Active”, the Activity (J774.A1) was “inactive” and the Drug uptake [19] was “Active”. For the same compound, the Activity [20] was “Non-Toxic”, the Activity (Mus musculus [21]) was “Active” and the Activity [22] was “Non-Toxic”. The Activity [23] was “Non-Toxic”, the clearance [24] was 0.647 mL/min/kg and the Drug uptake [25] was “Active”. For the same compound, the Activity [26] was “Non-Toxic”, the inhibition [27] was “inactive” and the Activity (Mus musculus [28]) was “Active”. For the same compound, the Activity (THP-1) was “inactive”.
